Columns and labels:
Leishmania donovani [1] = experiment: GSK_TCAKS: pIC50 Leishmania donovani Imaging: THP-1 Host Macrophages. Assay plates (384-well) were prepared by adding 250nL of compound to each well. For single shot assay, the final compound concentration was 5 uM. […] Automated image analysis was performed with a script developed on Acapella High Content Imaging and Analysis Software (PerkinElmer). Output: THP-1 cell count were reported for each well.; format: functional, organism-based, Homo sapiens
Trypanosoma cruzi [2] = experiment: GSK_TCAKS: pIC50 Trypanosoma cruzi viability assay using beta-GAL activity. This assay was run at single shot at 5uM compound concentration per well. The biological reagents consisted of NIH-3T3 host cells and trypomastigotes parasitic cells; both cell types were set to a 3.3 * 10^5 cells/mL dilution in assay DMEM by means of a CASY cell counter device using a 60um capillary. 6 uL of the mixture were dispensed per well (about 1 * 10^3 host-cells and 1 * 10^3 parasites) with a Multidrop Combi dispenser. […] In all wells, the percentage of DMSO never exceeded 0.5%. Plates incubated for four days at 37C, 5% CO2. The substrate used for the assay fluorescence intensity (FLINT) readout was resorufin-beta-D-galactopiranoside (Sigma-Aldrich) at 5uM per well. It was diluted in PBS supplemented with the soft detergent Igepal (Fluka).; format: functional, organism-based, Mus musculus; conditions: Tulahuen, NIH3T3
[3] = GSK_TCAKS: pIC50 HepG2 human cell line viability assay using luminiscence. […] Seeding density was checked to ensure that new mono-layers were not more than 50% confluent at the time of harvesting. Cell suspension was added to 500 mL of the same medium at a final density of 1.2 * 10^5 cells/mL. This cell suspension was dispensed (25 uL, 3000 cells per well) into 384-well clear-bottom plates using a Multidrop Combi dispenser. Prior to addition of the cell suspension, the screening compounds (250 nL) were pre-dispensed into the plates with an Echo liquid handler. Plates were incubated for 48 h at 37C, 5% CO2. After incubation, plates equilibrated at room temperature for 30 min before proceeding to develop the luminescent signal. The signal developer, CellTiter-Glo Reagent, was allowed to equilibrate at room temperature for 30 min and added to the plates (25uL per well) using a Multidrop Combi dispenser. Plates were left for 10 min at room temperature for stabilization and then read using a ViewLux.; format: toxicity, cell-based
Trypanosoma cruzi [4] = experiment: GSK_TCAKS: pIC50 Trypanosoma cruzi Imaging: Amastigotes/Cell. […] Cells were then washed once with PBS before infection. T. cruzi trypomastigotes, collected at days 5 to 8 after infection from LLC-MK2 parasite infected cultures, were allowed to swim out for 4h at 37C from a centrifuged pellet (2,500 rpm/10 min/room temperature). Trypomastigotes were then collected and counted in a CASY Cell Counter. Trypomastigotes, in supplemented DMEM, were added to H9c2 cultures in a multiplicity of infection of 1 and incubated for 18 h. Cells were washed once with PBS before incubation of the infected H9c2 monolayer with trypsin (Life-Technologies) to detach cells from the flask. Cells were counted in a CASY Cell Counter using a 150 um capillary and their density set at 5 * 10^4 cells per mL in supplemented assay DMEM. Infected H9c2 were dispensed into 384-well poly-lysine coated assay plates at 50uL per well using a Multidrop Combi dispenser. After seeding them, the plates were incubated at 37C, 5% CO2 for 72h. Cultures were then fixed and stained by addition of 50 uL of a solution containing 8% formaldehyde and 4 uM DRAQ5 DNA dye (BioStatus, UK) per well. […] Five images were collected per well for reliable statistical analysis. Automated image analysis was performed with a script developed on Acapella High Content Imaging and Analysis Software (PerkinElmer). Output: number of amastigotes per cell as infection level measurement.; format: functional, organism-based, Rattus norvegicus; conditions: H9c2, 4 h
Leishmania donovani [5] = experiment: GSK_TCAKS: pIC50 Leishmania donovani viability assay using fluorescence intensity. Assay plates (1536-well) were prepared by adding 30nL per well of compound. For single shot assay, the final compound concentration was 5uM. […] Briefly, eGFP LdBOB axenic amastigotes were harvested, fixed and counted in a CASY cell counter (Roche-Applied Science). A final concentration of 1.5 * 10^5 cells per well were prepared in amastigote media containing 500 U/mL penicillin/streptomycin (Invitrogen) and 6uL was dispensed to each experimental well using a Multidrop Combi dispenser (Thermo Scientific). 6uL of assay media was dispensed to control columns used as reference for 100% compound response. Following incubation for 72 h at 37C, 5% CO2, 2 uL of resazurin was added to each well at a final concentration of 0.5 mM in phosphate buffered saline (PBS) with IGEPAL (Sigma-Aldrich), 0.05% (v/v).; format: functional, organism-based
Leishmania donovani [6] = experiment: GSK_TCAKS: pIC50 Leishmania donovani Imaging: Infected Macrophages. Assay plates (384-well) were prepared by adding 250nL of compound to each well. For single shot assay, the final compound concentration was 5 uM. […] Automated image analysis was performed with a script developed on Acapella High Content Imaging and Analysis Software (PerkinElmer). Output: Percent of infected macrophage cells were reported for each well.; format: functional, organism-based, Homo sapiens; conditions: THP-1
Leishmania donovani [7] = experiment: GSK_TCAKS: pIC50 Leishmania donovani Imaging: Amastigotes/Macrophages. Assay plates (384-well) were prepared by adding 250nL of compound to each well. For single shot assay, the final compound concentration was 5 uM. […] Automated image analysis was performed with a script developed on Acapella High Content Imaging and Analysis Software (PerkinElmer). Output: Average number of amastigotes per macrophage cell were reported for each well.; format: functional, organism-based, Homo sapiens; conditions: THP-1
[8] = tested on: Trypanosoma brucei brucei; experiment: GSK_TCAKS: pIC50 Trypanosoma brucei viability assay using luminiscence. Assay plates (1536-well) were prepared. T. brucei cultures were harvested and counted in a CASY cell counter. A parasite suspension was prepared at a final concentration of 5 * 10^4 cells/mL in complete HMI9 medium and 6uL was dispensed to all wells containing compounds using a Multidrop Combi dispenser. 6uL of HMI9 media with 0.4% DMSO were dispensed to control columns. Plates were incubated for 24 h at 37C, 5% CO2 then tempered for 10 min at room temperature. ATP content was quantified by adding 4 uL of CellTiter-Glo Reagent (Promega) according to the manufacturer's instructions. Luminescence was measured using a ViewLux.; format: functional, organism-based; conditions: Lister 427, CASY
[9] = biological target: Sterol 14-alpha demethylase (Trypanosoma cruzi (strain CL Brener), UniProt Q7Z1V1); experiment: GSK_TCAKS: pIC50 CYP51 from Trypanosoma cruzi.; format: functional
Trypanosoma cruzi [10] = experiment: (§1) GSK_TCAKS: pIC50 Trypanosoma cruzi Imaging: Infected Cells. […] Cells were then washed once with PBS before infection. T. cruzi trypomastigotes, collected at days 5 to 8 after infection from LLC-MK2 parasite infected cultures, were allowed to swim out for 4h at 37C from a centrifuged pellet (2,500 rpm/10 min/room temperature). Trypomastigotes were then collected and counted in a CASY Cell Counter. Trypomastigotes, in supplemented DMEM, were added to H9c2 cultures in a multiplicity of infection of 1 and incubated for 18 h. Cells were washed once with PBS before incubation of the infected H9c2 monolayer with trypsin (Life-Technologies) to detach cells from the flask. Cells were counted in a CASY Cell Counter using a 150 um capillary and their density set at 5 * 10^4 cells per mL in supplemented assay DMEM. Infected H9c2 were dispensed into 384-well poly-lysine coated assay plates at 50uL per well using a Multidrop Combi dispenser. After seeding them, the plates were incubated at 37C, 5% CO2 for 72h. Cultures were then fixed and stained by addition of 50 uL of a solution containing 8% formaldehyde and 4 uM DRAQ5 DNA dye (BioStatus, UK) per well. […] Five images were collected per well for reliable statistical analysis. Automated image analysis was performed with a script developed on Acapella High Content Imaging and Analysis Software (PerkinElmer). Output: percentage of infected cells per well as a second infection marker.; format: functional, organism-based, Rattus norvegicus; conditions: H9c2, 4 h
[11] = tested on: Trypanosoma brucei brucei; experiment: GSK_TCAKS: pIC50 Trypanosoma brucei viability assay using fluorescence intensity. Assay plates (1536-well) were prepared by dispensing 25nL of compound solution per well using an Echo acoustic dispenser (Labcyte).; format: functional, organism-based; conditions: Lister 427, 2 h
Trypanosoma cruzi [12] = experiment: as §1, with “H2C9” for “Trypanosoma cruzi”, “H9c2 Host Cardiomyocytes.” for “Infected Cells.”, “Number” for “percentage”, “H9c2 Host Cardiomyocytes nuclei to determine drug-related cytotoxicity.” for “infected cells per well as a second infection marker.”; format: functional, organism-based, Rattus norvegicus; conditions: H9c2, 4 h

Sequence of Sterol 14-alpha demethylase (Q7Z1V1 whole entry): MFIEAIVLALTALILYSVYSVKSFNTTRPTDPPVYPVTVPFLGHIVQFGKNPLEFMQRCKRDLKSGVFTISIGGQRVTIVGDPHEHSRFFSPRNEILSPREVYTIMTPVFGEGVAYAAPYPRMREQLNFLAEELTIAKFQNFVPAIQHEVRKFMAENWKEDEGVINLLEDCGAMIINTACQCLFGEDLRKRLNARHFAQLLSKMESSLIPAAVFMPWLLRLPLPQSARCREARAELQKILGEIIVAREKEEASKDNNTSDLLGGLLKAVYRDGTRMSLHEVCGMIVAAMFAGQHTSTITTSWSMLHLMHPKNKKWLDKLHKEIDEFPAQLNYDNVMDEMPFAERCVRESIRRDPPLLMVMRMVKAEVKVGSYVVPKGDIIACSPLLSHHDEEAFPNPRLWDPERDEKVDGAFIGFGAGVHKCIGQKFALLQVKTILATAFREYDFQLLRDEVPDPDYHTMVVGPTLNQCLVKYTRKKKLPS

Row | SMILES | IC50 (Leishmania donovani [1]) | IC50 (Trypanosoma cruzi [2]) | IC50 at 48 h [3] | IC50 (Trypanosoma cruzi [4]) | IC50 (Leishmania donovani [5]) | IC50 (Leishmania donovani [6]) | IC50 (Leishmania donovani [7]) | IC50 [8] | IC50 [9] | IC50 (Trypanosoma cruzi [10]) | IC50 [11] | IC50 (Trypanosoma cruzi [12])
1 | CCOc1ccc(NC(=O)c2ccc(NC(=O)NC3CCCCC3)cc2)cc1 | 3.98 µM | 31.6 µM | > 100 µM | > 50.1 µM | > 50.1 µM | 7.94 µM | 6.31 µM | 0.501 µM | > 100 µM | > 50.1 µM | 0.2 µM | > 50.1 µM
2 | Cc1cc(Nc2cc(C3CC3)[nH]n2)nc(N2CCC[C@H]2C(N)=O)n1 | 0.126 µM | 0.126 µM | > 100 µM | 0.02 µM | 0.631 µM | 0.2 µM | 0.0794 µM | 0.0631 µM | > 100 µM | 0.0631 µM | 0.0126 µM | 0.126 µM
3 | Cc1nn(-c2ccccc2)nc1CNC(=O)CN(Cc1ccccn1)Cc1ccccn1 | > 63.1 µM | 3.98 µM | > 126 µM | 3.16 µM | 7.94 µM | 5.01 µM | 5.01 µM | 10 µM | 25.1 µM | 10 µM | 31.6 µM | > 63.1 µM
4 | CCCCc1cc(Nc2cc(C3CCC3)[nH]n2)nc(N2CCC2C(N)=O)n1 (configuration not stated) | 1 µM | 3.16 µM | > 100 µM | 1.58 µM | 3.98 µM | 2 µM | 0.631 µM | 0.158 µM | > 100 µM | 3.16 µM | 0.126 µM | 0.794 µM
5 | CNC(=O)C1Cc2ccccc2N1C(=O)Cc1ccccc1 (configuration not stated) | > 50.1 µM | > 50.1 µM | > 100 µM | > 50.1 µM | > 50.1 µM | > 50.1 µM | > 50.1 µM | 1 µM | > 100 µM | > 50.1 µM | 0.631 µM | > 50.1 µM
6 | COc1ccc(Nc2nc(N[C@H]3CC[C@H](O)CC3)ncc2Br)c(C(N)=O)c1 | 0.398 µM | 3.98 µM | > 100 µM | 2 µM | 3.16 µM | 1 µM | 0.631 µM | 0.251 µM | 12.6 µM | 3.16 µM | 0.1 µM | 0.794 µM
7 | C=CCN(Cc1cccs1)C(=O)CSc1nnc(-c2ccc3c(c2)OCO3)o1 | > 50.1 µM | 6.31 µM | > 100 µM | 0.501 µM | 6.31 µM | 3.16 µM | 1.26 µM | 39.8 µM | 7.94 µM | 0.631 µM | 20 µM | > 50.1 µM
8 | CC(C)CC(=O)NC(c1cccs1)c1ccc2cccnc2c1O (configuration not stated) | 1.58 µM | 1.58 µM | > 100 µM | 0.794 µM | 6.31 µM | 7.94 µM | 3.16 µM | 0.631 µM | 50.1 µM | 1.26 µM | 0.631 µM | 2 µM
9 | O=C(CN(Cc1ccccn1)Cc1ccccn1)NCc1ccc(-c2csnn2)cc1 | > 79.4 µM | 3.98 µM | 25.1 µM | 7.94 µM | 7.94 µM | 5.01 µM | 5.01 µM | 7.94 µM | 39.8 µM | 63.1 µM | 12.6 µM | > 79.4 µM
10 | CN(C)S(=O)(=O)c1ccc(-c2cnc(N)c(-c3nc4ccc(F)cc4[nH]3)c2)cc1 | 3.98 µM | 1.26 µM | > 100 µM | > 50.1 µM | 2.51 µM | 1.58 µM | 0.631 µM | 1 µM | 39.8 µM | > 50.1 µM | 0.398 µM | 1.26 µM
11 | COc1ccc(C2CC(c3ccccc3Cl)=NN2C(=O)CNC(=O)C2CCCC2)cc1 (configuration not stated) | > 50.1 µM | 3.55 µM | > 100 µM | 2 µM | > 50.1 µM | > 50.1 µM | > 50.1 µM | 0.794 µM | 63.1 µM | 3.16 µM | 0.631 µM | > 50.1 µM

From ChEMBL document CHEMBL3430912, “GSK Tres Cantos Anti-Kinetoplastid Screening (TCAKS) Data”
